Reference: article PMC9090415, “Discovery of small molecule inhibitors of Plasmodium falciparum apicoplast DNA polymerase” (Journal of Enzyme Inhibition and Medicinal Chemistry, 2022)

Molecular target: P. falciparum apicoplast DNA polymerase (Pf-apPOL) (Plasmodium falciparum, UniProt Q8ILY1)
Test: Fluorescence-based high-throughput DNA polymerase assay (molecular beacon), primary screen and dose-response
Assay type: biochemical
Conditions: for DNA Pol: 90 min, 10 µM
Procedure, shortened: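 Single-point screening used 10 µM compound with 20 nM polymerase, 20 nM hairpin substrate and 6 µM dNTPs for 90 min at 25 °C. Confirmatory titrations (2.5–80 µM) followed fluorescence at three times, and IC50 was derived from a fit including a cooperativity term n.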

[1] = 'DNA Pol' of the 186 hits list (screen value)
[2] = primary screen value, "DNA Pol"

Chain of P. falciparum apicoplast DNA polymerase (Pf-apPOL) (Q8ILY1 entry or part of it): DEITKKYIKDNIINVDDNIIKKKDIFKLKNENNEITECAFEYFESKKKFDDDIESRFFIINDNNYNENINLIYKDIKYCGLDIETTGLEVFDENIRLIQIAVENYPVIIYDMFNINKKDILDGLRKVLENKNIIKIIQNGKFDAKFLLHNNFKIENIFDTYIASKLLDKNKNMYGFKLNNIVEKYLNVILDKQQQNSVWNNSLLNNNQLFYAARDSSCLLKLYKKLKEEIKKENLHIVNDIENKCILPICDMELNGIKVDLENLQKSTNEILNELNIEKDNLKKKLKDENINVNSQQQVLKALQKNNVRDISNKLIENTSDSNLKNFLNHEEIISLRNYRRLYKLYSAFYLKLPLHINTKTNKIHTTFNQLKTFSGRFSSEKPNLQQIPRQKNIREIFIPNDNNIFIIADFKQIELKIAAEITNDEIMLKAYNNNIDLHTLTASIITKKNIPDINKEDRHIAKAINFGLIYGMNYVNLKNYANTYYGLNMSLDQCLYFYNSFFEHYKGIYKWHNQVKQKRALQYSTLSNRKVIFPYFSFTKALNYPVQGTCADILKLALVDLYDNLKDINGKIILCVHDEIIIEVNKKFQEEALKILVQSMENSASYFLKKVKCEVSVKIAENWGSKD

Cc1cccc(C2=N/C(=C\c3ccc([N+](=O)[O-])o3)C(=O)O2)c1 [KU0058960]
DNA Pol [1]: 79 | % inhibition Apo pol 10' (DRC-1, conc 2.5): 31.9938% | % inhibition Apo pol 10' (DRC-1, conc 5): 37.9558% | % inhibition Apo pol 10' (DRC-1, conc 10): 61.5267% | % inhibition Apo pol 10' (DRC-1, conc 20): 80.2962% | % inhibition Apo pol 10' (DRC-1, conc 40): 86.7912% | % inhibition Apo pol 10' (DRC-1, conc 80): 87.9713% | % inhibition Apol 90' (DRC-1, 90', conc 2.5): 16.0415% | % inhibition Apol 90' (DRC-1, 90', conc 5): 19.2427% | % inhibition Apol 90' (DRC-1, 90', conc 10): 39.4275% | % inhibition Apol 90' (DRC-1, 90', conc 20): 66.6869% | % inhibition Apol 90' (DRC-1, 90', conc 40): 86.2407% | % inhibition Apol 90' (DRC-1, 90', conc 80): 92.5412% | % inhibition apPOL 180' (DRC-1, 180', conc 2.5): 6.3408% | % inhibition apPOL 180' (DRC-1, 180', conc 5): 6.493% | % inhibition apPOL 180' (DRC-1, 180', conc 10): 24.2065% | % inhibition apPOL 180' (DRC-1, 180', conc 20): 52.0492% | % inhibition apPOL 180' (DRC-1, 180', conc 40): 83.7016% | % inhibition apPOL 180' (DRC-1, 180', conc 80): 94.2271% | % inhibition Apo pol 5' (DRC-2, 5', conc 2.5): 15% | % inhibition Apo pol 5' (DRC-2, 5', conc 5): 25% | % inhibition Apo pol 5' (DRC-2, 5', conc 10): 37% | % inhibition Apo pol 5' (DRC-2, 5', conc 20): 45% | % inhibition Apo pol 5' (DRC-2, 5', conc 40): 51% | % inhibition Apo pol 5' (DRC-2, 5', conc 80): 48% | % inhibition Apo pol 5' (DRC-2, 5', concentration 10): 37% | % inhibition Apol 40' (DRC-2, 40', conc 2.5): 12% | % inhibition Apol 40' (DRC-2, 40', conc 5): 23% | % inhibition Apol 40' (DRC-2, 40', conc 10): 37% | % inhibition Apol 40' (DRC-2, 40', conc 20): 50% | % inhibition Apol 40' (DRC-2, 40', conc 40): 64% | % inhibition Apol 40' (DRC-2, 40', conc 80): 69% | % inhibition Apol 40' (DRC-2, 40', concentration 10): 37% | % inhibition ApPOL 90' (DRC-2, 90', conc 2.5): 9% | % inhibition ApPOL 90' (DRC-2, 90', conc 5): 19% | % inhibition ApPOL 90' (DRC-2, 90', conc 10): 33% | % inhibition ApPOL 90' (DRC-2, 90', conc 20): 47% | % inhibition ApPOL 90' (DRC-2, 90', conc 40): 66% | % inhibition ApPOL 90' (DRC-2, 90', conc 80): 74% | % inhibition apPOL 180' (DRC-2, 180', conc 2.5): 1.68% | % inhibition apPOL 180' (DRC-2, 180', conc 5): 7% | % inhibition apPOL 180' (DRC-2, 180', conc 10): 20% | % inhibition apPOL 180' (DRC-2, 180', conc 20): 36% | % inhibition apPOL 180' (DRC-2, 180', conc 40): 63% | % inhibition apPOL 180' (DRC-2, 180', conc 80): 78% | DNA Pol [2]: 79

CCOc1nc2cccc(C(=O)OC(C)OC(=O)OC3CCCCC3)c2n1Cc1ccc(-c2ccccc2-c2nn[nH]n2)cc1 (stereo not drawn) [Molecule 94, CCOc1nc2c(n1Cc1ccc(cc1)c1ccccc1c1n[nH]nn1)c(ccc2)C(=O)OC(OC(=O)OC1CCCCC1)C]
DNA Pol [1]: 88 | % inhibition Apo pol 10' (DRC-1, conc 2.5): 6.803% | % inhibition Apo pol 10' (DRC-1, conc 5): 16.1591% | % inhibition Apo pol 10' (DRC-1, conc 10): 73.0339% | % inhibition Apo pol 10' (DRC-1, conc 20): 91.1% | % inhibition Apo pol 10' (DRC-1, conc 40): 96.7244% | % inhibition Apo pol 10' (DRC-1, conc 80): 98.4846% | % inhibition Apol 90' (DRC-1, 90', conc 2.5): 4.826% | % inhibition Apol 90' (DRC-1, 90', conc 5): 16.7075% | % inhibition Apol 90' (DRC-1, 90', conc 10): 71.8878% | % inhibition Apol 90' (DRC-1, 90', conc 20): 89.9299% | % inhibition Apol 90' (DRC-1, 90', conc 40): 93.9408% | % inhibition Apol 90' (DRC-1, 90', conc 80): 94.456% | % inhibition apPOL 180' (DRC-1, 180', conc 2.5): 1.0757% | % inhibition apPOL 180' (DRC-1, 180', conc 5): 11.5491% | % inhibition apPOL 180' (DRC-1, 180', conc 10): 64.6519% | % inhibition apPOL 180' (DRC-1, 180', conc 20): 87.4687% | % inhibition apPOL 180' (DRC-1, 180', conc 40): 92.7393% | % inhibition apPOL 180' (DRC-1, 180', conc 80): 93.1007% | % inhibition Apo pol 5' (DRC-2, 5', conc 2.5): 8% | % inhibition Apo pol 5' (DRC-2, 5', conc 5): 14% | % inhibition Apo pol 5' (DRC-2, 5', conc 10): 46% | % inhibition Apo pol 5' (DRC-2, 5', conc 20): 55% | % inhibition Apo pol 5' (DRC-2, 5', conc 40): 61% | % inhibition Apo pol 5' (DRC-2, 5', conc 80): 61% | % inhibition Apo pol 5' (DRC-2, 5', concentration 5): 14% | % inhibition Apo pol 5' (DRC-2, 5', concentration 40): 61% | % inhibition Apo pol 5' (DRC-2, 5', concentration 80): 61% | % inhibition Apol 40' (DRC-2, 40', conc 2.5): 11% | % inhibition Apol 40' (DRC-2, 40', conc 5): 19% | % inhibition Apol 40' (DRC-2, 40', conc 10): 59% | % inhibition Apol 40' (DRC-2, 40', conc 20): 71% | % inhibition Apol 40' (DRC-2, 40', conc 40): 74% | % inhibition Apol 40' (DRC-2, 40', conc 80): 74% | % inhibition Apol 40' (DRC-2, 40', concentration 5): 19% | % inhibition Apol 40' (DRC-2, 40', concentration 10): 59% | % inhibition Apol 40' (DRC-2, 40', concentration 40): 74% | % inhibition Apol 40' (DRC-2, 40', concentration 80): 74% | % inhibition ApPOL 90' (DRC-2, 90', conc 2.5): 9% | % inhibition ApPOL 90' (DRC-2, 90', conc 5): 19% | % inhibition ApPOL 90' (DRC-2, 90', conc 10): 59% | % inhibition ApPOL 90' (DRC-2, 90', conc 20): 73% | % inhibition ApPOL 90' (DRC-2, 90', conc 40): 77% | % inhibition ApPOL 90' (DRC-2, 90', conc 80): 77% | % inhibition ApPOL 90' (DRC-2, 90', concentration 5): 19% | % inhibition ApPOL 90' (DRC-2, 90', concentration 10): 59% | % inhibition ApPOL 90' (DRC-2, 90', concentration 40): 77% | % inhibition ApPOL 90' (DRC-2, 90', concentration 80): 77% | % inhibition apPOL 180' (DRC-2, 180', conc 2.5): 4.45% | % inhibition apPOL 180' (DRC-2, 180', conc 5): 14% | % inhibition apPOL 180' (DRC-2, 180', conc 10): 53% | % inhibition apPOL 180' (DRC-2, 180', conc 20): 69% | % inhibition apPOL 180' (DRC-2, 180', conc 40): 75% | % inhibition apPOL 180' (DRC-2, 180', conc 80): 75% | % inhibition apPOL 180' (DRC-2, 180', concentration 5): 14% | % inhibition apPOL 180' (DRC-2, 180', concentration 40): 75% | % inhibition apPOL 180' (DRC-2, 180', concentration 80): 75% | DNA Pol [2]: 88

O=c1[nH]c2ccc(Br)cc2c(-c2ccccc2)c1C1=NNC(c2ccco2)C1 (stereo not drawn) [KU0045540]
% inhibition Apo pol 10' (DRC-1, concentration 2.5): 38.7065% | % inhibition Apo pol 10' (DRC-1, concentration 5): 32.1153% | % inhibition Apo pol 10' (DRC-1, concentration 10): 58.5243% | % inhibition Apo pol 10' (DRC-1, concentration 20): 75.2705% | % inhibition Apo pol 10' (DRC-1, concentration 40): 80.4182% | % inhibition Apo pol 10' (DRC-1, concentration 80): 78.0702% | % inhibition Apol 90' (DRC-1, 90', concentration 2.5): 12.887% | % inhibition Apol 90' (DRC-1, 90', concentration 5): 9.899% | % inhibition Apol 90' (DRC-1, 90', concentration 10): 32.8734% | % inhibition Apol 90' (DRC-1, 90', concentration 20): 57.4465% | % inhibition Apol 90' (DRC-1, 90', concentration 40): 76.3337% | % inhibition Apol 90' (DRC-1, 90', concentration 80): 82.7097% | % inhibition apPOL 180' (DRC-1, 180', concentration 2.5): 0.7615% | % inhibition apPOL 180' (DRC-1, 180', concentration 5): -2.038% | % inhibition apPOL 180' (DRC-1, 180', concentration 10): 16.3913% | % inhibition apPOL 180' (DRC-1, 180', concentration 20): 40.539% | % inhibition apPOL 180' (DRC-1, 180', concentration 40): 67.9853% | % inhibition apPOL 180' (DRC-1, 180', concentration 80): 81.6451% | % inhibition Apo pol 5' (DRC-2, 5', concentration 2.5 (unit not given)): 15% | % inhibition Apo pol 5' (DRC-2, 5', concentration 20 (unit not given)): 65% | % inhibition Apo pol 5' (DRC-2, 5', concentration 40 (unit not given)): 65% | % inhibition Apol 40' (DRC-2, 40', concentration 2.5 (unit not given)): 15% | % inhibition Apol 40' (DRC-2, 40', concentration 10 (unit not given)): 49% | % inhibition Apol 40' (DRC-2, 40', concentration 20 (unit not given)): 77% | % inhibition ApPOL 90' (DRC-2, 90', concentration 10 (unit not given)): 49% | % inhibition ApPOL 90' (DRC-2, 90', concentration 20 (unit not given)): 77% | % inhibition ApPOL 90' (DRC-2, 90', concentration 80 (unit not given)): 72% | % inhibition apPOL 180' (DRC-2, 180', concentration 20 (unit not given)): 72% | % inhibition Apo pol 5' (DRC-2, 5', concentration 2.5): 15% | % inhibition Apo pol 5' (DRC-2, 5', concentration 5): 27% | % inhibition Apo pol 5' (DRC-2, 5', concentration 10): 40% | % inhibition Apo pol 5' (DRC-2, 5', concentration 20): 65% | % inhibition Apo pol 5' (DRC-2, 5', concentration 40): 65% | % inhibition Apo pol 5' (DRC-2, 5', concentration 80): 39% | % inhibition Apol 40' (DRC-2, 40', concentration 2.5): 15% | % inhibition Apol 40' (DRC-2, 40', concentration 5): 33% | % inhibition Apol 40' (DRC-2, 40', concentration 10): 49% | % inhibition Apol 40' (DRC-2, 40', concentration 20): 77% | % inhibition Apol 40' (DRC-2, 40', concentration 40): 81% | % inhibition Apol 40' (DRC-2, 40', concentration 80): 67% | % inhibition ApPOL 90' (DRC-2, 90', concentration 2.5): 15% | % inhibition ApPOL 90' (DRC-2, 90', concentration 2.5 (unit not given)): 15% | % inhibition ApPOL 90' (DRC-2, 90', concentration 5): 31% | % inhibition ApPOL 90' (DRC-2, 90', concentration 10): 49% | % inhibition ApPOL 90' (DRC-2, 90', concentration 20): 77% | % inhibition ApPOL 90' (DRC-2, 90', concentration 40): 83% | % inhibition ApPOL 90' (DRC-2, 90', concentration 80): 72% | % inhibition apPOL 180' (DRC-2, 180', concentration 2.5): 11% | % inhibition apPOL 180' (DRC-2, 180', concentration 5): 22% | % inhibition apPOL 180' (DRC-2, 180', concentration 10): 41% | % inhibition apPOL 180' (DRC-2, 180', concentration 20): 72% | % inhibition apPOL 180' (DRC-2, 180', concentration 40): 82% | % inhibition apPOL 180' (DRC-2, 180', concentration 80): 75% | DNA Pol (primary screen value of the 186 hits, unit not given): 43 | DNA Pol (primary screen value, head "DNA Pol", unit not given): 43
